Reference: patent publication US20040054194A1, “Method for producing 1-pyrrolines” (priority 2003, published 2004)
Where two headings read alike, the source gives them in different places.

Assays:
[1] = logP determination by HPLC on a reversed-phase column (C 18), EEC Directive 79/831 Annex V.A8; type: physicochemical; details: reversed-phase HPLC column (C 18), pH 2.3, HPLC
Protocol: The logp values given in the tables and Preparation Examples above are determined in accordance with EEC Directive 79/831 Annex V .A8 by HPLC (High Performance Liquid Chromatography) on a reversed-phase column (C 18). Temperature: 43° C.
The determination is carried out in the acidic range at pH 2.3 using the mobile phases 0.1% aqueous phosphoric acid and acetonitrile; linear gradient from 10% acetonitrile to 90% acetonitrile.
Calibration is carried out using unbranched alkan-2-ones (of 3 to 16 carbon atoms) with known logp values (determination of the logp values by the retention times using linear interpolation between two successive alkanones).

[2] = acidic range pH 2.3, pyrrolines of the formula (I), read-out: logP*
[3] = pH 2.3, read-out: log P (pH 2.3)
[4] = acidic range pH 2.3, amides of the formula (II), read-out: logP*

chromatographic logP [1, 2]	chromatographic logP [1, 3]	melting point	chromatographic logP [1, 4]	chromatographic logP ([1]; acidic range pH 2.3, chalcones of the formula (VI), read-out: logP*)	chromatographic logP ([1]; acidic range pH 2.3, cyclopropanes of the formula (III), read-out: logP*)	SMILES
–	2.59	–	2.59	–	–	CC(=O)NC(CCC(=O)c1c(F)cccc1F)c1ccc(Cl)cc1 (centres unmarked) [II-2, N-[1-(4-chlorophenyl)-4-(2,6-difluorophenyl)-4-oxobutyl]acetamide]
–	–	–	3.79	–	–	CC(=O)NC(CCC(=O)c1c(F)cccc1F)c1ccc(-c2ccc(OC(F)(F)F)cc2)cc1 (centres unmarked) [II-3]
–	3.98	71 °C	–	3.98	–	O=C(/C=C/c1ccc(Br)cc1)c1c(F)cccc1F [VI-1, (2E)-3-(4-bromophenyl)-1-(2,6-difluorophenyl)-2-propen-1-one]
–	4.24	64 to 65 °C	–	–	4.22	O=C(c1c(F)cccc1F)C1CC1c1ccc(Br)cc1 (centres unmarked) [III-1, [2-(4-bromophenyl)cyclopropyl](2,6-difluoro-phenyl)methanone]

More lines, now with the values behind:

SMILES	chromatographic logP [1, 2]	chromatographic logP [1, 3]	melting point	chromatographic logP [1, 4]	chromatographic logP ([1]; acidic range pH 2.3, chalcones of the formula (VI), read-out: logP*)	chromatographic logP ([1]; acidic range pH 2.3, cyclopropanes of the formula (III), read-out: logP*)
Fc1cccc(F)c1C1=NC(c2ccc(Br)cc2)CC1 (centres unmarked) [Example I-1, 2-(4-bromophenyl)-5-(2,6-difluorophenyl)-3,4-dihydro-2H-pyrrole]	2.77	2.74	48 °C	–	–	–
CC(=O)NC(CCC(=O)c1c(F)cccc1F)c1ccc(Br)cc1 (centres unmarked) [II-1, N-[1-(4-bromophenyl)-4-(2,6-difluorophenyl)-4-oxobutyl]acetamide]	–	2.67	162 to 163 °C	2.67	–	–
Fc1cccc(F)c1C1=NC(c2ccc(Cl)cc2)CC1 (centres unmarked) [Example I-2, 2-(4-chlorophenyl)-5-(2,6-difluorophenyl)-3,4-dihydro-2H-pyrrole]	2.59	2.59	–	–	–	–
